Measurements as given in patent US12599599B2, “Anti-inflammatory, anti-cancer, and anti-angiogenic compounds, pharmaceutical compositions, and methods of making and using thereof” (MEDICON PHARMACEUTICALS, INC., priority 2017, dated 2026).

Tested on: SKOV-3 ovarian cancer
Test: 24 hr growth inhibition of cell line
Format: cell-based
Settings: Homo sapiens, SK-OV-3, 24 h
Procedure: The therapeutic efficacy of compounds 2, 5, and 6 was assessed in human and murine cell lines of varied tissue origin, and their 24 hr 50% inhibitory concentration was determined by following standard methodologies. Typical results are shown in the Table 5, indicating a broad anticancer effect.
Ovarian cancer cells were studied in greater detail using the following ovarian cancer cell lines: SKOV-3, OVCAR3, A2780 (and two cell lines derived from it, A2870cis that is resistant to cisplatin, and A2870ADR that is resistant to doxorubicin (Adriamycin)), and HEY (sensitive to paclitaxel (Taxol), and its derivative HEY-T30 that is Taxol-resistant). […]

- IC50: 9 µM
Compound: CCN(CC)CCCCNC(=O)c1ccccc1SC/C=C(\C)CC/C=C(\C)CCC=C(C)C [Compound 5]
